Tested on: Fu5AH rat hepatoma cells
Experiment: Inhibition of cholesterol ester accumulation in Fu5AH cells
Format: cell-based
Set-up: Visual (in comparison to results with compound of Example 2a) / % Inhibition of cholesterol ester accumulation: unit of the concentration uncertain
Details: for inhibition at 10 µg/mL: Rattus norvegicus
Source text: For testing a 75 cm^2 flask with a near confluent cell growth is selected. The cells are removed from the flask surface by mild enzymatic treatment with pronase. After centrifugation and decanting the enzyme solution, the cell pellet is resuspended in an appropriate volume of media for seeding the desired number of 60 mm tissue culture dishes. Five (5) ml of the diluted cell suspension are pipetted into each dish. After seeding, the dishes are labelled with the cell type, date and flask number of origin and incubated at 37° C. in approximately 5% CO2 atmosphere in a high humidity incubator. When the cultures are confluent, the actual drug testing is begun. Test compounds are routinely solubilized in 100% ethanol. An equivalent amount of ethanol is added to control groups as well. The tissue culture dishes are randomly divided into groups. To one group, hyperlipemic rabbit serum (HRS) is added at 5% by volume (control). […] The dishes are returned to the incubator for an additional 24 hours. All operations through to the final incubation are performed using sterile technique in a laminar flow hood. After the incubation period, the dishes are microscopically observed with the Zeiss Axiomat with phase contrast optics and the conditions of the cultures are recorded; especially in regard to the size, number and configuration of cytoplasmic inclusions and to cellular morphology. The media is removed from the cultures and 0.9% sodium chloride solution is added. The cells are removed from the flasks with the aid of a rubber policeman and transferred to a conical graduated centrifuge tube. The cells are washed three times by suspending in an isotonic salt solution, centrifuging at 800× g for 10 minutes and aspirating the supernatant fluid.
An appropriate volume of isopropyl alcohol (about 1 ml/mg protein) is then added to the cell pellet and the sample sonicated with a micro probe (140×3 mm) for 10 seconds with a "LO" setting of 50 on a Bronwell Biosonik IV. After centrifugation for 15 minutes at 800× g, the clear supernatant is decanted and an aliquot taken for cholesterol analysis.
An aliquot of 0.4 ml of free reagent (Reagent A, Table 1 below) is added to a 10×75 mm disposable glass test tube to which 20 μl of the isopropyl alcoholic solution is added and mixed. After standing at room temperature for approximately 5 minutes, 0.8 ml of 0.5 N sodium hydroxide (Reagent C, Table 1) is added and mixed. The fluorescence is measured with an Aminco-Bowman spectrophotofluorometer with an excitation wavelength of 325 nm and emission wavelength of 415 nm. A 1 cm light path cuvette is used with a xenon lamp, an IP28 photomultiplier tube and 2 mm slits.
Total cholesterol: The same procedure described above for free cholesterol is followed for total cholesterol except that the total reagent (Reagent B, Table 1) is used instead of the free reagent and the samples are incubated for 20 minutes at 37° C. before the addition of the 0.5 N sodium hydroxide solution (Reagent C, Table 1).
The amount of cholesterol ester is found by subtracting the amount of free cholesterol from the total cholesterol content of the cells determined by the assay.

[1] = Dose 10 (unit uncertain) as printed
[2] = Dose 10 as printed, Control = 0.17

Compound: CCCCC/C=C\C/C=C\CCCCCCCC(=O)NC(Cc1c[nH]c2ccccc12)C(=O)OCC (stereo not drawn) [Example 1, α-[(1-Oxo-9,12-oxtadecadienylamino)]1H-Indole-3-Propanoic acid, Ethyl Ester(cis, cis isomer)]
- Visual (in comparison to results with compound of Example 2a) [1]: About same
- % Inhibition of cholesterol ester accumulation (Dose 10 (unit uncertain) as printed, Table 6): 59%
- inhibition at 10 µg/mL (Table 6): 69%

Compound: CCCCCCCC/C=C\CCCCCCCC(=O)NC(Cc1cn(C)c2ccccc12)C(=O)OCC (centres unmarked) [Example 3a, 2-(1-oxo-9-octadecenylamino)-3-(1-methylindolyl)-propanoic acid, ethyl ester]
- F/T [2]: 0.52

Compound: CCCCCCCC/C=C\CCCCCCCC(=O)NC(Cc1c[nH]c2ccc(OC)cc12)C(=O)OCC (centres unmarked) [Example 3b, 2-(1-oxo-9-octadecenylamino)-3-(1H-5-methoxyindolyl)-propanoic acid, ethyl ester]
- Visual (in comparison to results with compound of Example 2a) [1]: About same
- F/T [2]: 0.45

Compound: CCCCCCCC/C=C\CCCCCCCC(=O)NC(Cc1c[nH]c2ccc(F)cc12)C(=O)OCC (centres unmarked) [Example 3e, 2-(1-oxo-9-octadecenylamino)-3-(1H-5 fluoroindolyl)-propanoic acid, ethyl ester]
- Visual (in comparison to results with compound of Example 2a) [1]: About same
- inhibition at 10 µg/mL (Table 6): 39%

Compound: CCCCC/C=C\C/C=C\CCCCCCCC(=O)NC(Cc1c[nH]c2ccccc12)C(=O)OCCCCCCCC (centres unmarked) [Example 4c]
- Visual (in comparison to results with compound of Example 2a) (Dose 5 (unit uncertain) as printed): Weaker
- F/T (Dose 5 as printed, Control = 0.19): 0.22

Compound: CCCCC/C=C\C/C=C\CCCCCCCC(=O)NC(Cc1c[nH]c2ccccc12)C(=O)OCc1ccccc1 (centres unmarked) [Example 4d]
- Visual (in comparison to results with compound of Example 2a) [1]: About same

Source: patent US4448785A, “N-Unsaturated fatty acid amides of tryptophan ester homologues and anti-cholesteric use thereof” (Sandoz, Inc., priority 1982, dated 1984)
